In brackets after ≈: the same amount, converted by molar mass. Where a SMILES comes first, the peptide text is derived from it.
Experiments:
Staphylococcus aureus = experiment: Antibacterial activity against Staphylococcus aureus assessed as inhibition of bacterial growth incubated for 24 hrs by visual inspection analysis; format: functional
[1] = Pro-aggregation of the compound in human MDA-MB-231 cells at 1 mM by fluorescence microscopic analysis; format: physicochemical, cell-based; details: mda-mb-231, 1000 µM
[2] = Pro-aggregation of the compound in human NCI-H460 cells at 1 mM by Bright field microscopic analysis; format: physicochemical, cell-based; details: nci-h460, 1000 µM
[3] = Pro-aggregation of the compound in human MDA-MB-231 cells at 1 mM by Bright field microscopic analysis; format: physicochemical, cell-based; details: mda-mb-231, 1000 µM
Erythrocyte = experiment: (§1) Induction of hemolysis in mouse RBC assessed as induction of hemoglobin release incubated for 1 hr by absorbance based analysis; format: toxicity, cell-based; details: erythrocyte
NCI-H460 = experiment: (§2) Cytotoxicity against human NCI-H460 cells assessed as reduction in cell viability measured after 24 hrs by quantitative live/dead fluorescence microscopy; format: toxicity, cell-based; details: nci-h460
[4] = Pro-aggregation of the compound in human NCI-H460 cells at 1 mM by fluorescence microscopic analysis; format: physicochemical, cell-based; details: nci-h460, 1000 µM
MDA-MB-231 = experiment: (§3) Cytotoxicity against human MDA-MB-231 cells assessed as reduction in cell viability measured after 24 hrs by quantitative live/dead fluorescence microscopy; format: toxicity, cell-based; details: mda-mb-231
[5] = as §1; format: toxicity, cell-based, Erythrocyte; details: mouse, mouse red blood cells (erythrocytes)
[6] = as §2; format: toxicity, cell-based; details: human, NCI-H460 cells
[7] = Selectivity ratio of EC50 for cytotoxicity against human MDA-MB-231 cells to EC50 for cytotoxicity against human NCI-H460 cells; format: functional
[8] = Therapeutic index, ratio of EC50 for induction of hemolytic activity against mouse RBC to MIC for antibacterial activity against Staphylococcus aureus; format: toxicity; details: mouse red blood cells (erythrocytes), read-out: TI
[9] = as §3; format: toxicity, cell-based; details: human, MDA-MB-231 cells
[10] = Induction of hemolysis in mouse RBC assessed as induction of hemoglobin release at ~100 uM incubated for 1 hr by absorbance based analysis; format: toxicity, cell-based, Erythrocyte; details: mouse red blood cells (erythrocytes), read-out: Activity
[11] = Induction of hemolysis in mouse RBC assessed as induction of hemoglobin release at ~400 uM incubated for 1 hr by absorbance based analysis; format: toxicity, cell-based, Erythrocyte; details: mouse red blood cells (erythrocytes), read-out: Activity

Molecule | MIC (Staphylococcus aureus) | Activity [1] | Activity [2] | Activity [3] | Activity [4] | also measured
CC(C)C[C@H](NC(=O)[C@H](CCN)NC(=O)[C@@H](CCN)NC(=O)CC/C=C/c1ccccc1)C(=O)N[C@H](Cc1ccccc1)C(=O)N[C@@H](CCN)C(N)=O | 2.1 µM (≈ 1.55 µg/mL) |  |  |  |  | 
POLYMYXIN B |  | Not Active | Not Active | Not Active | Not Active | EC50 (Erythrocyte): ≥ 1000 µM; EC50 (NCI-H460): 181 µM; EC50 (MDA-MB-231): > 1000 µM
CCCOc1ccc(/C=C/CCC(=O)N[C@H](CCN)C(=O)N[C@@H](CCN)C(=O)N[C@@H](CC(C)C)C(=O)N[C@H](Cc2ccccc2)C(=O)N[C@@H](CCN)C(N)=O)cc1 | 1 µM (≈ 0.794 µg/mL) | Active | Active | Active | Active | EC50 at 1 h [5]: ~330 µM; EC50 at 24 h [6]: 90 µM; Ratio EC50 [7]: 2; selectivity ratio [8]: 135; EC50 at 24 h [9]: 221 µM; hemolysis at 1 h, 100 µM [10]: 2.1%
CCC(C)CCC(=O)N[C@H](CCN)C(=O)N[C@@H](CCN)C(=O)N[C@@H](CC(C)C)C(=O)N[C@H](Cc1ccccc1)C(=O)N[C@@H](CCN)C(N)=O (stereo partly drawn) (HELM PEPTIDE1{[CCC(C)CCC(=O)[*:2]].[NCC[C@@H](N[*:1])C(=O)[*:2]].[Dab].L.[dF].[Dab].[am]}$$$$V2.0) | 4.5 µM (≈ 3.1 µg/mL) |  |  |  |  | 
CC(C)C[C@H](NC(=O)[C@H](CCN)NC(=O)[C@@H](CCN)NC(=O)C(C)C(C)/C=C/c1ccccc1)C(=O)N[C@H](Cc1ccccc1)C(=O)N[C@@H](CCN)C(N)=O (stereo partly drawn) | 1 µM (≈ 0.764 µg/mL) | Active | Active | Active | Active | EC50 at 1 h [5]: ≥ 400 µM; EC50 at 24 h [6]: 324 µM; Ratio EC50 [7]: 2; hemolysis at 1 h, 400 µM [11]: 3.4%; selectivity ratio [8]: > 267; EC50 at 24 h [9]: 898 µM
CN[C@@H]1[C@H](O[C@H]2[C@H](O[C@H]3[C@H](O)[C@@H](O)[C@H](N=C(N)N)[C@@H](O)[C@@H]3N=C(N)N)O[C@@H](C)[C@]2(O)C=O)O[C@@H](CO)[C@H](O)[C@H]1O [STREPTOMYCIN] | 1.3 µM (≈ 0.756 µg/mL) |  |  |  |  | 
COc1ccc(/C=C/CCC(=O)N[C@H](CCN)C(=O)N[C@@H](CCN)C(=O)N[C@@H](CC(C)C)C(=O)N[C@H](Cc2ccccc2)C(=O)N[C@@H](CCN)C(N)=O)cc1 | 2 µM (≈ 1.53 µg/mL) |  |  |  |  | 
C=CC(C)C(C)C(=O)N[C@H](CCN)C(=O)N[C@@H](CCN)C(=O)N[C@@H](CC(C)C)C(=O)N[C@H](Cc1ccccc1)C(=O)N[C@@H](CCN)C(N)=O (stereo partly drawn) | 18.2 µM (≈ 12.5 µg/mL) |  |  |  |  | 
C=CCCC(=O)N[C@H](CCN)C(=O)N[C@@H](CCN)C(=O)N[C@@H](CC(C)C)C(=O)N[C@H](Cc1ccccc1)C(=O)N[C@@H](CCN)C(N)=O | 75.8 µM (≈ 50 µg/mL) |  |  |  |  | 
CCCCc1ccc(/C=C/CCC(=O)N[C@H](CCN)C(=O)N[C@@H](CCN)C(=O)N[C@@H](CC(C)C)C(=O)N[C@H](Cc2ccccc2)C(=O)N[C@@H](CCN)C(N)=O)cc1 | 1 µM (≈ 0.792 µg/mL) | Active | Active | Active | Active | EC50 at 1 h [5]: ~90 µM; EC50 at 24 h [6]: 31 µM; Ratio EC50 [7]: 2; hemolysis at 1 h, 400 µM [11]: 77%; selectivity ratio [8]: 60; EC50 at 24 h [9]: 67 µM; hemolysis at 1 h, 100 µM [10]: 56%
CCc1ccc(/C=C/CCC(=O)N[C@H](CCN)C(=O)N[C@@H](CCN)C(=O)N[C@@H](CC(C)C)C(=O)N[C@H](Cc2ccccc2)C(=O)N[C@@H](CCN)C(N)=O)cc1 | 1 µM (≈ 0.764 µg/mL) |  |  |  |  | 

Source: ChEMBL document CHEMBL5329196, “Development of truncated Battacin antimicrobials featuring novel N-terminal fatty acids with an excellent safety profile” (Bioorg Med Chem Lett, 2023)
